A word on the EC50: it is the midpoint of the concentration-response curve.

In the test the target is T1, human apelin receptor (Homo sapiens, UniProt P35414).
T1 construct: expressed in transfected cells
T1 sequence (P35414 1-380): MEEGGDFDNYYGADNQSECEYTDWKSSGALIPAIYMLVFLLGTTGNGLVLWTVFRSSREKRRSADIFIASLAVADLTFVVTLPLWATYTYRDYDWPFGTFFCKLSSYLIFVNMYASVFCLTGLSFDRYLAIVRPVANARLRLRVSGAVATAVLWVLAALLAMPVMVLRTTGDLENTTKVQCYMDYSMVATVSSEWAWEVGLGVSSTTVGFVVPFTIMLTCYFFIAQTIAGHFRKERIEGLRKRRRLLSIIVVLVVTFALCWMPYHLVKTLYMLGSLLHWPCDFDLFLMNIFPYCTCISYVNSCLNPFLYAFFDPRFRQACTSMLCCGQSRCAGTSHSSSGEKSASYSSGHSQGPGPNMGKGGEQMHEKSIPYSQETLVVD
The test can be described thus: Determination of agonism on the human apelin receptor by a calcium fluorescence assay (FLIPR). The following applies: HEK293 cells stably transfected with human apelin receptor and Giaq protein, Fluo-4 calcium fluorescence, read-out: EC50 (APJ agonism). The class given is cell-based. In short, it runs like this: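 HEK293 cells stably co-expressing human apelin receptor and promiscuous Giaq, loaded 1 h at 37 °C with Fluo-4 (4 μM) in probenecid-containing Hepes buffer, pH 7.4. Compounds, at least 7 concentrations in triplicate, added in FLIPR Tetra; peak calcium fluorescence normalized to 1 μM apelin-13 as 100% to derive EC50.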
For the molecule `CCC(CC)n1c(Cc2cccs2)nc2cc(C(=O)N[C@@H](CC(C)C)C(=O)NCc3ncco3)ccc21` [Example 254, 1-(1-Ethyl-propyl)-2-thiophen-2-ylmethyl-1H-benzoimidazole-5-carboxylic acid {(S)-3-methyl-1-[(oxazol-2-ylmethyl)-carbamoyl]-butyl}-amide], the EC50 amounted to 233 nM.

Take `CC(C)C[C@H](NC(=O)c1ccc2c(c1)nc(Cc1cccs1)n2CC1CCCCC1)C(=O)O` [Example 83, (S)-2-[(1-Cyclohexylmethyl-2-thiophen-2-ylmethyl-1H-benzoimidazole-5-carbonyl)-amino]-4-methyl-pentanoic acid]: the EC50 turned out to be 18200 nM.

Consider `CCC(CC)n1c(CC2CCCO2)nc2cc(C(=O)N[C@@H](CC(C)C)C(=O)O)ccc21` (stereo partly drawn) [Example 80, (S)-2-{[1-(1-Ethyl-propyl)-2-(tetrahydro-furan-2-ylmethyl)-1H-benzoimidazole-5-carbonyl]-amino}-4-methyl-pentanoic acid], for which the EC50 came to 1670 nM.

In the case of `CCC(CC)n1c(Cc2cccs2)nc2cc(C(=O)N[C@@H](CC(C)C)C(=O)NC3CCN(C)CC3)ccc21` [Example 327, 1-(1-Ethyl-propyl)-2-thiophen-2-ylmethyl-1H-benzoimidazole-5-carboxylic acid [(S)-3-methyl-1-(1-methyl-piperidin-4-ylcarbamoyl)-butyl]-amide], the half-maximal effective concentration (EC50) turned out to be 111 nM. With `CC(C)C[C@@H](CC(=O)O)NC(=O)c1ccc2c(c1)nc(Cc1cccs1)n2C1CCCC1C` (stereo partly drawn) [Example 104, (S)-5-Methyl-3-{[1-(2-methyl-cyclopentyl)-2-thiophen-2-ylmethyl-1H-benzoimidazole-5-carbonyl]-amino}-hexanoic acid], the 50% effective concentration (EC50) worked out at 479 nM. Consider `CCCN1CCC(NC(=O)[C@H](CC(C)C)NC(=O)c2ccc3c(c2)nc(Cc2cccs2)n3C(CC)CC)CC1` [Example 285, 1-(1-Ethyl-propyl)-2-thiophen-2-ylmethyl-1H-benzoimidazole-5-carboxylic acid [(S)-3-methyl-1-(1-propyl-piperidin-4-ylcarbamoyl)-butyl]-amide], for which the half-maximal effective concentration (EC50) was 295 nM. In the case of `CC(C)C[C@@H](CC(=O)O)NC(=O)c1ccc2c(c1)nc(Cc1cccs1)n2C1CCCCC1C` (single isomer, unassigned) [Example 439], the EC50 was determined as 662 nM. On to `CC(C)C[C@H](NC(=O)c1ccc2c(c1)nc(Cc1cccs1)n2C1CCCC1C)C(=O)O` (stereo partly drawn) [Example 90, (S)-4-Methyl-2-{[1-(2-methyl-cyclopentyl)-2-thiophen-2-ylmethyl-1H-benzoimidazole-5-carbonyl]-amino}-pentanoic acid], for which the EC50 is 472 nM. Regarding `CC[C@H](C)[C@H](NC(=O)c1ccc2c(c1)nc(Cc1cccs1)n2[C@@H]1CCCC[C@H]1C)C(=O)O` [Example 92, (2S,3S)-3-Methyl-2-{[1-((1R,2R)-2-methyl-cyclohexyl)-2-thiophen-2-ylmethyl-1H-benzoimidazole-5-carbonyl]-amino}-pentanoic acid], the EC50 is less than 41 nM. Regarding `C[C@@H]1CCCC[C@H]1n1c(Cc2cccs2)nc2cc(C(=O)NC(CC(=O)O)C3CCCCC3)ccc21` (stereo partly drawn) [Example 57, 3-Cyclohexyl-3-{[1-((1R,2R)-2-methyl-cyclohexyl)-2-thiophen-2-ylmethyl-1H-benzoimidazole-5-carbonyl]-amino}-propionic acid], the EC50 was 475 nM. In the case of `CCC(CC)n1c(CC2CCCC2)nc2cc(C(=O)N[C@@H](CC(C)C)C(=O)O)ccc21` [Example 129, (S)-2-{[2-Cyclopentylmethyl-1-(1-ethyl-propyl)-1H-benzoimidazole-5-carbonyl]-amino}-4-methyl-pentanoic acid], the EC50 was 2680 nM. As for `CC(C)C[C@H](NC(=O)c1ccc2c(c1)nc(Cc1ccco1)n2C1CCCCC1C)C(=O)O` (stereo partly drawn) [Example 86, (S)-2-{[2-Furan-2-ylmethyl-1-(2-methyl-cyclohexyl)-1H-benzoimidazole-5-carbonyl]-amino}-4-methyl-pentanoic acid], the figure is 88 nM; as for `CCCC[C@H](NC(=O)c1ccc2c(c1)nc(Cc1cccs1)n2C1CCCCC1C)C(=O)O` (single isomer, unassigned) [Example 420], 14 nM.

Consider `CCC(C)NC(=O)[C@H](CC(C)C)NC(=O)c1ccc2c(c1)nc(Cc1cccs1)n2C(CC)CC` (stereo partly drawn) [Example 218, 1-(1-Ethyl-propyl)-2-thiophen-2-ylmethyl-1H-benzoimidazole-5-carboxylic acid ((S)-1-sec-butylcarbamoyl-3-methyl-butyl)-amide], for which the EC50 amounted to 2010 nM.

`CCC(CC)n1c(Cc2cccs2)nc2cc(C(=O)N[C@@H](CC(C)C)C(=O)N3CCN(C4CCCCC4)CC3)ccc21` [Example 318, 1-(1-Ethyl-propyl)-2-thiophen-2-ylmethyl-1H-benzoimidazole-5-carboxylic acid [(S)-1-(4-cyclohexyl-piperazine-1-carbonyl)-3-methyl-butyl]-amide]: the EC50 amounted to 2860 nM.

Turning to `CCCCC(CC(=O)O)NC(=O)c1ccc2c(c1)nc(Cc1cccs1)n2C(CC)CC` (stereo not shown) [Example 45, 3-{[1-(1-Ethyl-propyl)-2-thiophen-2-ylmethyl-1H-benzoimidazole-5-carbonyl]-amino}-heptanoic acid], the EC50 is 552 nM. In the case of `CC(C)C[C@H](NC(=O)c1ccc2c(c1)nc(Cc1cccs1)n2C(C(C)C)C(C)C)C(=O)O` [Example 164, (S)-2-{[1-(1-Isopropyl-2-methyl-propyl)-2-thiophen-2-ylmethyl-1H-benzoimidazole-5-carbonyl]-amino}-4-methyl-pentanoic acid], the EC50 was 6350 nM. As for `CCC(CC)n1c(Cc2cccs2)nc2cc(C(=O)NC(CC(=O)O)CC3CCCCC3)ccc21` (stereo not shown) [Example 46, 4-Cyclohexyl-3-{[1-(1-ethyl-propyl)-2-thiophen-2-ylmethyl-1H-benzoimidazole-5-carbonyl]-amino}-butyric acid], the figure is 112 nM; as for `CCCCN1CCC(CNC(=O)[C@H](CC(C)C)NC(=O)c2ccc3c(c2)nc(Cc2cccs2)n3C(CC)CC)CC1` [Example 331, 1-(1-Ethyl-propyl)-2-thiophen-2-ylmethyl-1H-benzoimidazole-5-carboxylic acid {(S)-1-[(1-butyl-piperidin-4-ylmethyl)-carbamoyl]-3-methyl-butyl}-amide], 267 nM; as for `CCCN1CCCC(CNC(=O)[C@H](CC(C)C)NC(=O)c2ccc3c(c2)nc(Cc2cccs2)n3C(CC)CC)C1` (stereo partly drawn) [Example 309, 1-(1-Ethyl-propyl)-2-thiophen-2-ylmethyl-1H-benzoimidazole-5-carboxylic acid {(S)-3-methyl-1-[(1-propyl-piperidin-3-ylmethyl)-carbamoyl]-butyl}-amide], 482 nM. `CC(C)C[C@@H](CC(=O)O)NC(=O)c1ccc2c(c1)nc(Cc1ccco1)n2C1CCCCC1C` (single isomer, unassigned) [Example 434]: the concentration for a half-maximal effect (EC50) amounted to 425 nM. The result for `CCC(CC)n1c(Cc2ccsc2)nc2cc(C(=O)N[C@@H](CC(C)C)C(=O)O)ccc21` [Example 117, (S)-2-{[1-(1-Ethyl-propyl)-2-thiophen-3-ylmethyl-1H-benzoimidazole-5-carbonyl]-amino}-4-methyl-pentanoic acid] reads 419 nM. In the case of `CCC(CC)n1c(Cc2cccs2)nc2cc(C(=O)N[C@@H](CC(C)C)C(=O)NCC3CCCN4CCCCC34)ccc21` (stereo partly drawn) [Example 275, 1-(1-Ethyl-propyl)-2-thiophen-2-ylmethyl-1H-benzoimidazole-5-carboxylic acid {(S)-3-methyl-1-[(octahydro-quinolizin-1-ylmethyl)-carbamoyl]-butyl}-amide], the EC50 amounted to 242 nM. Take `CCC(CC)n1c(Cc2ccco2)nc2cc(C(=O)N[C@H](CC3CCCCC3)C(=O)O)ccc21` [Example 9, (R)-3-Cyclohexyl-2-{[1-(1-ethyl-propyl)-2-furan-2-ylmethyl-1H-benzoimidazole-5-carbonyl]-amino}-propionic acid]: the EC50 came out at 585 nM. With `C[C@@H]1CCCC[C@H]1n1c(Cc2cccs2)nc2cc(C(=O)N[C@@H](CC3CCC3)C(=O)O)ccc21` [Example 23, (S)-3-Cyclobutyl-2-{[1-((1R,2R)-2-methyl-cyclohexyl)-2-thiophen-2-ylmethyl-1H-benzoimidazole-5-carbonyl]-amino}-propionic acid], the EC50 turned out to be 106 nM. With `CCC(CC)n1c(Cc2ccno2)nc2cc(C(=O)N[C@H](CC(=O)O)CC(C)C)ccc21` [Example 105, (S)-3-{[1-(1-Ethyl-propyl)-2-isoxazol-5-ylmethyl-1H-benzoimidazole-5-carbonyl]-amino}-5-methyl-hexanoic acid], the EC50 was determined as 5470 nM.

For the molecule `CC[C@H](C)[C@@H](CC(=O)O)NC(=O)c1ccc2c(c1)nc(Cc1cccs1)n2[C@@H]1CCCC[C@H]1C` [Example 53, (3R,4S)-4-Methyl-3-{[1-((1R,2R)-2-methyl-cyclohexyl)-2-thiophen-2-ylmethyl-1H-benzoimidazole-5-carbonyl]-amino}-hexanoic acid], the EC50 was 48 nM. On to `CCC(CC)n1c(Cc2cccs2)nc2cc(C(=O)N[C@@H](CC(C)C)C(=O)NCC3CCCN(CC)C3)ccc21` (stereo partly drawn) [Example 303, 1-(1-Ethyl-propyl)-2-thiophen-2-ylmethyl-1H-benzoimidazole-5-carboxylic acid {(S)-1-[(1-ethyl-piperidin-3-ylmethyl)-carbamoyl]-3-methyl-butyl}-amide], for which the EC50 was determined as 214 nM.
